Experimental data as given in US20260048043A1, “HIGH LOADING ORAL FILM FORMULATION WITH IMPROVED BIOAVAILABILITY” (INTELGENX CORP., priority 2022, published 2026).

Test: Compatibility of maropitant with polyacid polymers (precipitate formation)
Type: physicochemical
Conditions: neutral pH

COc1ccc(C(C)(C)C)cc1CN[C@H]1C2CCN(CC2)[C@H]1C(c1ccccc1)c1ccccc1 [Maropitant, (2S,3S)-(Diphenylmethyl)-N-[2-methoxy-5-(2-methyl-2-propanyl)benzyl]quinuclidin-3-amine]
precipitate formation with polyacid polymer(s) such as CMC, Carbomer and polycarbophil: precipitate was formed
